Reference: patent publication US9738640B2, “Substituted benzamide derivatives as in vitro MAO-B inhibitors” (“NTZ LAB” Ltd., priority 2013, dated 2017)

Assays:
Assay type in all cases: biochemical
[1] = target: rat MAO-A (Rattus norvegicus (Rat), UniProt P21396); assay: Rat MAO-A assay (Amplex Red fluorescence, rat liver mitochondria); conditions: deprenyl-pretreated, substrate p-tyramine 300 μM
Experimental: (§1) The MAO-A and MAO-B enzyme activity of the compounds, according to the present invention, was estimated following an assay adapted from the method described by Holt et al. (Anal. Biochem. 244, 384-392, 1997). The MAO experiments were performed using a fluorescence-based detection of resorufin, obtained by a reaction of released from the biological sample hydrogen peroxide with 10-acetyl-3,7-dihydroxyphenoxazine (ADHP) in the presence of a peroxidase (horseradish peroxidase-coupled reaction, HRP). The inhibitory in vitro MAO activity of the compounds of general Formula I was investigated at rat and human MAO-A and MAO-B. To perform rat MAO-A and MAO-B experiments, a preliminary membrane preparation of mitochondrial-enriched rat livers isolated from male Sprague-Dawley rats (Harlan Sprague Dawley, Dublin, US) was required. As sources for recombinant human MAO-A and MAO-B enzymes were used microsomal products, prepared from baculovirus-infected insect cells expressing human MAO-A (Sigma-Aldrich, M7316) and human MAO-B (Sigma-Aldrich, M7441), respectively.
(§2) To estimate MAO inhibitory activity of the compounds of Formula I at rat and human MAO-A and MAO-B, the corresponding test compound was dissolved in 100% DMSO and subsequently added to the appropriate enzyme solution containing rat liver mitochondria (rat MAO-A and -B) or recombinant human protein (for determination of human MAO-A and -B) in sodium phosphate buffer. The test sample was incubated for 30 min at room temperature prior to the addition of Amplex Red reagent (Invitrogen A12214) using for the fluorescence-based measuring of MAO inhibitory activity. The enzymatic reaction was started by the addition of the substrate p-tyramine. The fluorescence measurements were performed over a period of 45 min using a microplate fluorescence reader (excitation at 544 nm and emission at 590 nm). IC50 values were determined from the inhibition curves obtained using different inhibitor concentrations in triplicate within the same experiment. A four-parameter logistic equation was used to fit the dose-response curves for test compounds using a computer program.
(§3) MAO-A and MAO-B enzymatic activity of the compounds was measured in 96-well-plates using a continuous fluorescence-based assay. This assay was adapted from the method described by Holt et al. (Anal. Biochem., 244, 384-392, 1997). The MAO experiments were performed using the commercial assay kit Amplex Red (Invitrogen A12214). The kit was stored frozen at ≦−20° C. and protected from light before use. The Amplex Red MAO assay kit was used for the detection of H2O2 released from the biological sample. Subsequently, a reaction of 10-acetyl-3,7-dihydroxyphenoxazine (ADHP, Amplex Red reagent) with H2O2 in the presence of a peroxidase (horse-radish peroxidase-coupled reaction, HRP) led to the production of resorufin. The quantification of hydrogen peroxide released from the biological sample and the subsequent production of resorufin was monitored using a fluorescence microplate reader (Holt et al., Anal. Biochem., 244, 384-392, 1997). To ensure an optimal efficiency of the Amplex Red reagent, the MAO assay's were performed at pH 7.4.
MAO enzyme-containing mitochondrial-enriched fractions of rat were obtained from male Sprague-Dawley rat livers (250-300 g, Harlan Sprague-Dawley, Dublin, Va., US). The livers (10.0 g) were dissected, given into 15.0 mL of an ice-cold 5.0 mM Hepes buffer (pH 7.4), containing 210 mM mannitol, 70 mM sucrose, 0.5 mM ethylene glycoltetraacetic acid (EGTA), and 2.0 mg/mL of bovine serum albumin (BSA), and homogenized using a glass/Teflon potter (10 ups and downs at 1100 rpm). After homogenization, the volume is adjusted to 100 mL with the same buffer. After a low speed centrifugation (10 min at 600 g; 4° C.), the supernatant was further centrifuged at 15,000 rpm for 5 min at +4° C. […]

[2] = target: human MAO-A (Homo sapiens (Human), UniProt P21397); assay: Human MAO-A assay (Amplex Red fluorescence, recombinant enzyme); conditions: substrate p-tyramine 150 μM
Chain of human MAO-A (P21397 whole entry): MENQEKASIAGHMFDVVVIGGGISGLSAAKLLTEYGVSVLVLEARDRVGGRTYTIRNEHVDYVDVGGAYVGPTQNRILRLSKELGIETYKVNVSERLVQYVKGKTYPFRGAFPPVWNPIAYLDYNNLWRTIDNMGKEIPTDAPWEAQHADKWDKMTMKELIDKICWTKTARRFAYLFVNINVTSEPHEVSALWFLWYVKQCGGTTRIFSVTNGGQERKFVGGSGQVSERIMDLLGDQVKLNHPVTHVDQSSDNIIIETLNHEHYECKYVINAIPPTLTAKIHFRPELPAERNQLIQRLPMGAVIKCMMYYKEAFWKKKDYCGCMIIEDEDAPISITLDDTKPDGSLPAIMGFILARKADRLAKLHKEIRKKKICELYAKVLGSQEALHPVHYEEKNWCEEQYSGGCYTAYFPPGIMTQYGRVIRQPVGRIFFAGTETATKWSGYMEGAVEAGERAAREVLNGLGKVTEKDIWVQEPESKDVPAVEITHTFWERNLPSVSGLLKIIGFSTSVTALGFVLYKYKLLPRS
Experimental: as §1, §2, §3
Recombinant human MAO-A enzyme, expressed in baculovirus-infected insect cells, was purchased from Sigma-Aldrich (M7316). The assay was carried out in 96-well plates in a final volume of 200 μL at room temperature. According to the experiment protocol, a solution of test compound (2.0 μL) in DMSO (100%) was added to 90.0 μL of protein solution (0.3 μg prot/well, containing 6.6 μL protein and […] phosphate buffer) and incubated for 30 min prior to the addition of 90 μL of freshly prepared Amplex Red reagent. The Amplex Red reagent was prepared as described for rat MAO-A. The enzymatic reaction was started by the addition of 20.0 μL/well of an aqueous solution of the substrate p-tyramine (150 μM final concentration). […]

[3] = target: human MAO-B (Homo sapiens (Human), UniProt P27338); assay: Human MAO-B assay (Amplex Red fluorescence, recombinant enzyme); conditions: substrate p-tyramine
Chain of human MAO-B (P27338 whole entry): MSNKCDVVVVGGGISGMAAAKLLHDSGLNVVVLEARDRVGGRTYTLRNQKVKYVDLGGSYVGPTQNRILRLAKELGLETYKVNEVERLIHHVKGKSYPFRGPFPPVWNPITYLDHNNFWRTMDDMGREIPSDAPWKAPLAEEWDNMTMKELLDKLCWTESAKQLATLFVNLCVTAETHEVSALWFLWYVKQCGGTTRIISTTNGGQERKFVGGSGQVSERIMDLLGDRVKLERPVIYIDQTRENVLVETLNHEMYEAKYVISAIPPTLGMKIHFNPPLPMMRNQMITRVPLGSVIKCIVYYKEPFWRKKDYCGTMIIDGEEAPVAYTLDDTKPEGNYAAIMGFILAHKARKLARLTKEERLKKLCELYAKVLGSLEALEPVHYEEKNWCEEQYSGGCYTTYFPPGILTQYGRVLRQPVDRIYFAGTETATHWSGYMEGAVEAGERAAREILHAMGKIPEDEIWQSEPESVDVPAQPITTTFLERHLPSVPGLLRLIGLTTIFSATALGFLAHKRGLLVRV
Experimental: (§4) To estimate MAO inhibitory activity of the compounds of Formula I at rat and human MAO-A and MAO-B, the corresponding test compound was dissolved in 100% DMSO and subsequently added to the appropriate enzyme solution containing rat liver mitochondria (rat MAO-A and -B) or recombinant human protein (for determination of human MAO-A and -B) in sodium phosphate buffer. The test sample was incubated for 30 min at room temperature prior to the addition of Amplex Red reagent (Invitrogen A12214) using for the fluorescence-based measuring of MAO inhibitory activity. The enzymatic reaction was started by the addition of the substrate p-tyramine. […] IC50 values were determined from the inhibition curves obtained using different inhibitor concentrations in triplicate within the same experiment. A four-parameter logistic equation was used to fit the dose-response curves for test compounds using a computer program.
MAO-A and MAO-B enzymatic activity of the compounds was measured in 96-well-plates using a continuous fluorescence-based assay. […] The MAO experiments were performed using the commercial assay kit Amplex Red (Invitrogen A12214). The kit was stored frozen at ≦−20° C. and protected from light before use. The Amplex Red MAO assay kit was used for the detection of H2O2 released from the biological sample. Subsequently, a reaction of 10-acetyl-3,7-dihydroxyphenoxazine (ADHP, Amplex Red reagent) with H2O2 in the presence of a peroxidase (horse-radish peroxidase-coupled reaction, HRP) led to the production of resorufin. […] To ensure an optimal efficiency of the Amplex Red reagent, the MAO assay's were performed at pH 7.4.
The assay was carried out in 96-well plates in a final volume of 200 μL at room temperature. According to the experiment protocol, a solution of test compound (2.0 μL) in DMSO (100%) was added to 90.0 μL of protein solution (0.3 μg prot/well, containing 6.6 μL protein and 9.993 μL phosphate buffer) and incubated for 30 min prior to the addition of 90 μL of freshly prepared Amplex Red reagent. […] The p-tyramine solution was prepared from p-tyramine hydrochloride (45 μL) in water (100 mM) and phosphate buffer (2955 μL). […] DMSO (2.0 μL) was used as a negative control.
Recombinant human MAO-B enzyme, expressed in baculovirus-infected insect cells, was purchased from Sigma-Aldrich (M7441).

[4] = target: rat MAO-B (Rattus norvegicus (Rat), UniProt P19643); assay: Rat MAO-B assay (Amplex Red fluorescence, rat liver mitochondria); conditions: clorgyline-pretreated, substrate p-tyramine
Chain of rat MAO-B (P19643 whole entry): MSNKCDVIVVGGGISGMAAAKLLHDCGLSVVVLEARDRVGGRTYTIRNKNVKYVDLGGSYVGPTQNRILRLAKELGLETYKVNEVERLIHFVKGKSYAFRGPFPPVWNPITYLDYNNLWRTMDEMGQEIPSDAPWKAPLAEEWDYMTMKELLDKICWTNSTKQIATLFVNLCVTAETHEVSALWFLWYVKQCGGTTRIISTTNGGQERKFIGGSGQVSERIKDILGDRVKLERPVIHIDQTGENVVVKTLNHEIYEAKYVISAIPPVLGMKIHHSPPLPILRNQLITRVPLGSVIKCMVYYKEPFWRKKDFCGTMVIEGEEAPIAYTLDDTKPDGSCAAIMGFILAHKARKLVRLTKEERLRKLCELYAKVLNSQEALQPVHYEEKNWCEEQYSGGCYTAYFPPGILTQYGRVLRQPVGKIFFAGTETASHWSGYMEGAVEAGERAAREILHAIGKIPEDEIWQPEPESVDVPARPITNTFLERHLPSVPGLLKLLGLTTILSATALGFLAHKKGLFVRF
Experimental: as §4
MAO enzyme-containing mitochondrial-enriched fractions of rat were obtained from male Sprague-Dawley rat livers (250-300 g, Harlan Sprague-Dawley, Dublin, Va., US). The livers (10.0 g) were dissected, given into 15.0 mL of an ice-cold 5.0 mM Hepes buffer (pH 7.4), containing 210 mM mannitol, 70 mM sucrose, 0.5 mM ethylene glycoltetraacetic acid (EGTA), and 2.0 mg/mL of bovine serum albumin (BSA), and homogenized using a glass/Teflon potter (10 ups and downs at 1100 rpm). After homogenization, the volume is adjusted to 100 mL with the same buffer. After a low speed centrifugation (10 min at 600 g; 4° C.), the supernatant was further centrifuged at 15,000 rpm for 5 min at +4° C. The resulting pellet was resuspended in 2.0 mL of a 50 mM sodium phosphate buffer (pH 7.4) and stored at −80° C. in aliquots of 1.0 mL until further use.
Assays were performed in 96-well plates in a final volume of 200 μL at room temperature. […] Test compounds (2.0 μL), dissolved in DMSO (100%), were added to 90.0 μL of mitochondrial preparation (25.0 μg prot) and incubated for 30 min prior to the addition of 90 μL of freshly prepared Amplex Red reagent, prepared as recommended in the kit from Invitrogen (A12214). For a 96-well plate, 1.0 mg of Amplex Red, dissolved in 200 μL of DMSO (100%) and 100 μL of reconstituted horse-radish peroxidase (HRP 200 U/mL, Sigma Aldrich P6782) stock solution (kit vial+1.0 mL of sodium phosphate buffer) were added to 9700 μL of sodium phosphate buffer (250 mM at pH 7.4).

Chain of rat MAO-A (P21396 whole entry): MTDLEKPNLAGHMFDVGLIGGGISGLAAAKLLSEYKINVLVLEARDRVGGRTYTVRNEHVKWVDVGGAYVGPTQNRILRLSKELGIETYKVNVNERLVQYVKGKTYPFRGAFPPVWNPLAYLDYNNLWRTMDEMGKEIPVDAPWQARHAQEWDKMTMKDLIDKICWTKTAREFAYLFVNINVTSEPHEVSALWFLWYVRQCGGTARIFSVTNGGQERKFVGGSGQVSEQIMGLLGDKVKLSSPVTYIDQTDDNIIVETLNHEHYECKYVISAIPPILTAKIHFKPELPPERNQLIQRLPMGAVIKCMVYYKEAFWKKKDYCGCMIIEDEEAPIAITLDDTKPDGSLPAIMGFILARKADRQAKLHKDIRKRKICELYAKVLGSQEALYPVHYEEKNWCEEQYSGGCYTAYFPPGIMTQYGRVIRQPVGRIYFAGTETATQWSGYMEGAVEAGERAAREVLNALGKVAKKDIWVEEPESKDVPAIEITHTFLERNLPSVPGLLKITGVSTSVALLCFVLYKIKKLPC

| IC50 [1] | IC50 [2] | IC50 [3] | IC50 [4] | Structure (SMILES) |
| --- | --- | --- | --- | --- |
| > 10 µM | > 10 µM | 0.277 ± 0.012 µM |  | O=C(Nc1cc2cc[nH]c2cn1)c1ccc(F)c(F)c1 [Example 8, 3,4-difluoro-N-(1H-pyrrolo[2,3-c]pyridin-5-yl)benzamide] |
| > 10 µM | > 10 µM | 0.0109 ± 0.00075 µM | 0.0855 ± 0.0058 µM | O=C(Nc1ccc2[nH]ccc2n1)c1ccc(Cl)c(F)c1 [Example 3, 4-chloro-3-fluoro-N-(1H-pyrrolo[3,2-b]pyridin-5-yl)benzamide] |
| > 10 µM | > 10 µM | 0.00327 ± 4e-05 µM | 0.0049 ± 0.00033 µM | O=C(Nc1ccc2[nH]ccc2n1)c1ccc(F)c(Cl)c1 [Example 2, 3-chloro-4-fluoro-N-(1H-pyrrolo[3,2-b]pyridin-5-yl)benzamide] |
| > 10 µM | > 10 µM |  |  | O=C(Nc1ccc2[nH]ccc2n1)c1ccc(Cl)c(Cl)c1 [Example 1, 3,4-dichloro-N-(1H-pyrrolo[3,2-b]pyridin-5-yl)benzamide] |
| > 10 µM | > 10 µM | 0.0275 ± 0.002 µM | 0.246 ± 0.053 µM | O=C(Nc1ccc2c(ccn2C(=O)c2ccc(Cl)c(F)c2)n1)c1ccc(Cl)c(F)c1 [Example 5, 4-chloro-N-(1-(4-chloro-3-fluorobenzoyl)-1H-pyrrolo[3,2-b]pyridin-5-yl)-3-fluorobenzamide] |
| < 10 µM | < 10 µM | 0.072 ± 0.0026 µM | 0.158 ± 0.016 µM | O=C(Nc1cc2cc[nH]c2cn1)c1ccc(F)c(Cl)c1 [Example 7, 3-chloro-4-fluoro-N-(1H-pyrrolo[2,3-c]pyridin-5-yl)benzamide] |
| > 10 µM | > 10 µM | 0.0461 ± 0.0015 µM | 0.153 ± 0.011 µM | O=C(Nc1ccc2[nH]ccc2n1)c1ccc(F)c(F)c1 [Example 4, 3,4-difluoro-N-(1H-pyrrolo[3,2-b]pyridin-5-yl)benzamide] |

| Structure (SMILES) | IC50 [1] | IC50 [2] | IC50 [3] | IC50 [4] |
| --- | --- | --- | --- | --- |
| O=C(Nc1cc2cc[nH]c2cn1)c1ccc(Cl)c(Cl)c1 [Example 6, 3,4-dichloro-N-(1H-pyrrolo[2,3-c]pyridin-5-yl)benzamide] | ≥ 10 µM | < 10 µM | 0.0285 ± 0.0024 µM | 0.224 ± 0.017 µM |
